Experiments:
[1] = Protein binding in dog plasma; assay type: ADME, cell-free, Canis lupus familiaris; conditions: read-out: PPB (converted)
in vivo [2] = conditions: Sprague-Dawley, rat, liver, po, 3 mg/kg
Description: Drug concentration in liver of Sprague-Dawley rat at 3 mg/kg, po measured after 4 hrs by LC-MS/MS analysis

[3] = Clearance in Sprague-Dawley rat at 1 mg/kg, iv measured for 0.25 to 24 hrs by LC-MS/MS analysis; assay type: ADME, organism-based; conditions: in vivo, time 0.25-24 hrs
[4] = Intrinsic clearance in human liver microsomes; assay type: ADME, Microsome; conditions: read-out: CLH
Cytochrome P450 2C19 = Cytochrome P450 2C19 (Homo sapiens, UniProt P33261); experiment: Inhibition of CYP2C19 (unknown origin); assay type: ADME
Sequence of Cytochrome P450 2C19 (P33261 whole entry): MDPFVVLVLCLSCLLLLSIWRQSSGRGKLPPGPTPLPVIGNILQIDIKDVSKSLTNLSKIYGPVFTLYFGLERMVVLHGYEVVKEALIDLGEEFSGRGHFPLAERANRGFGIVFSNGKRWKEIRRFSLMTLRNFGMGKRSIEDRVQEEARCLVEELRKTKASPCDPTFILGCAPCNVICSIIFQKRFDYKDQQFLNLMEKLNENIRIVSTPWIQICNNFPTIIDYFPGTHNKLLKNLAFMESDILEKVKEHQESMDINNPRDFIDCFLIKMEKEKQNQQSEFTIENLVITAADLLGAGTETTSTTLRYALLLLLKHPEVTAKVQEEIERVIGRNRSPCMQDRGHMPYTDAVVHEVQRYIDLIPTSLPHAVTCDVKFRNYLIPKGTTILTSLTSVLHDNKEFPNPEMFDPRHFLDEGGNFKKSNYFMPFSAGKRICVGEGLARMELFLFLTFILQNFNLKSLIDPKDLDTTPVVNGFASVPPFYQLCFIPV

[5] = Intrinsic clearance in mouse liver microsomes; assay type: ADME, Microsome; conditions: read-out: CLH
[6] = AUC (0 to t) in Sprague-Dawley rat at 1 mg/kg, iv measured for 0.25 to 24 hrs by LC-MS/MS analysis; assay type: ADME, organism-based; conditions: in vivo, time 0.25-24 hrs
[7] = Mutagenicity in Salmonella typhimurium by mini-Ames test; assay type: toxicity; conditions: salmonella enterica subsp. enterica serovar typhimurium
in vivo [8] = conditions: Sprague-Dawley, rat, plasma, po, 3 mg/kg
Description: Drug concentration in plasma of Sprague-Dawley rat at 3 mg/kg, po measured after 0.25 hrs by LC-MS/MS analysis

[9] = Biodistribution in 12 hr-fasted male wild-type Sprague-Dawley rat assessed as increase in ratio of drug concentration in liver/plasma at 3 mg/kg, po measured for 0.25 to 4 hrs by LC-MS/MS analysis; assay type: ADME, organism-based; conditions: in vivo, time 0.25-4 hrs
[10] = Toxicity in Sprague-Dawley rat model of DEN-induced liver fibrosis assessed as animal mortality at 3 to 10 mg/kg, po qd treated for 4 weeks; assay type: organism-based; conditions: in vivo, 672 h, dose 3-10 mg/kg
[11] = Intrinsic clearance in dog liver microsomes; assay type: ADME, Canis lupus familiaris, Microsome; conditions: read-out: CLH
[12] = Protein binding in human plasma; assay type: ADME, cell-free; conditions: read-out: PPB (converted)
[13] = Protein binding in mouse plasma; assay type: ADME, cell-free; conditions: read-out: PPB (converted)
Cytochrome P450 2C8 = target: T1, Cytochrome P450 2C8 (Homo sapiens, UniProt P10632); experiment: Inhibition of CYP2C8 (unknown origin); assay type: ADME
T1 sequence (P10632 whole entry): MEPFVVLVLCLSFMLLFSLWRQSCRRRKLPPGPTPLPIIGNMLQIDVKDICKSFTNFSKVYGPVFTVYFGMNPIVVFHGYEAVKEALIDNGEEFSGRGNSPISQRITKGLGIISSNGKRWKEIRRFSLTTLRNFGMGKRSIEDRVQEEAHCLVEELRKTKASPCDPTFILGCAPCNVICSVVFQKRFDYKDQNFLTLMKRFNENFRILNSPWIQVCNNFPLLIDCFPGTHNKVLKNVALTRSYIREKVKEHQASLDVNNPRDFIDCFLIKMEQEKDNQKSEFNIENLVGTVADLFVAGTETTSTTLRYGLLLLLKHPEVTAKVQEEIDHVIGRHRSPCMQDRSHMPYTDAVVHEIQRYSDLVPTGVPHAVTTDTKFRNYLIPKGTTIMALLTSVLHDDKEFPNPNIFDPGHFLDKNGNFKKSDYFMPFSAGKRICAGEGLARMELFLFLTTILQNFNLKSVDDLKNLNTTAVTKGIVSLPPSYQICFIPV

[14] = Stability of compound assessed as (1S,3s)-3-(6-carbamoyl-1-((R)-2-(2-methoxyphenyl)-2-((tetrahydro-2H-pyran-4-yl)oxy)ethyl)-5-methyl-2,4-dioxo-1,4-dihydrothieno[2,3-d]pyrimidin-3(2H)-y l)-1-methylcyclobutane-1-carboxylic acid metabolite formation by measuring retention time; assay type: ADME
[15] = MRT (0 to t) in Sprague-Dawley rat at 3 mg/kg, po measured for 0.25 to 24 hrs by LC-MS/MS analysis; assay type: ADME, organism-based; conditions: in vivo, time 0.25-24 hrs
[16] = Biodistribution in liver of 12 hr-fasted male wild-type Sprague-Dawley rat at 3 mg/kg, po measured after 4 hrs by LC-MS/MS analysis; assay type: ADME, organism-based; conditions: in vivo
[17] = Intrinsic clearance in monkey liver microsomes; assay type: ADME, Macaca mulatta, Microsome; conditions: rhesus monkey, read-out: CLH
[18] = Protein binding in monkey plasma; assay type: ADME, cell-free, Macaca mulatta; conditions: rhesus monkey, read-out: PPB (converted)
[19] = Tmax in Sprague-Dawley rat at 3 mg/kg, po measured for 0.25 to 24 hrs by LC-MS/MS analysis; assay type: ADME, organism-based; conditions: in vivo, time 0.25-24 hrs
[20] = Oral bioavailability in Sprague-Dawley rat at 3 mg/kg measured for 0.25 to 24 hrs by LC-MS/MS analysis; assay type: ADME, organism-based; conditions: in vivo, time 0.25-24 hrs
[21] = Protein binding in rat plasma; assay type: ADME, cell-free; conditions: read-out: PPB (converted)
Cytochrome P450 3A4 = Cytochrome P450 3A4 (Homo sapiens, UniProt P08684); experiment: Inhibition of CYP3A4 (unknown origin) using midazolam as substrate; assay type: ADME
Sequence of Cytochrome P450 3A4 (P08684 whole entry): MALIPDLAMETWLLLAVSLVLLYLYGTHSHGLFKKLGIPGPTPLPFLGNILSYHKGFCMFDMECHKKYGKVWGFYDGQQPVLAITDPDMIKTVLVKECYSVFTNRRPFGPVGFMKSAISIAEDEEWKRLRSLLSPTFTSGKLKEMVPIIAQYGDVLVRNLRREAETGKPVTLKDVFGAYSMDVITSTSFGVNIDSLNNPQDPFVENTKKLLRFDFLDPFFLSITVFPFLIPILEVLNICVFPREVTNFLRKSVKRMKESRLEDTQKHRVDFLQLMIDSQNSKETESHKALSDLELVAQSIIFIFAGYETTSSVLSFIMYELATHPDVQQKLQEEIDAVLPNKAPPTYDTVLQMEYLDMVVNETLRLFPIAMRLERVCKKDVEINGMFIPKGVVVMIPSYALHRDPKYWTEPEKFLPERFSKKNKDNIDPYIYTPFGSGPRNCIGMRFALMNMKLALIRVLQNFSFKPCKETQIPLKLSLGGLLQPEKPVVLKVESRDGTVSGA

## COc1ccccc1[C@H](Cn1c(=O)n([C@H]2C[C@@](C)(C(=O)O)C2)c(=O)c2c(C)c(-c3ncco3)sc21)OC1CCOCC1
[1]
  fraction unbound: 0.054
In vivo [2]
  concentration at 4 h: 4830 ng/mL
[3]
  clearance: 63.3 mL/min/kg
[4]
  CLint scaled: < 8.6 mL/min/kg
Cytochrome P450 2C19
  IC50: > 30 µM
[5]
  CLint scaled: 44.4 mL/min/kg
[6]
  AUC(0-t): 263 ng·h/mL
[7]
  Activity: Non-toxic
In vivo [8]
  concentration at 0.25 h: 13.7 ng/mL
[9]
  Drug uptake: Active
[10]
  Activity: Non-toxic
[11]
  CLint scaled: < 13.8 mL/min/kg
[12]
  fraction unbound: 0.037
[13]
  fraction unbound: 0.054
Cytochrome P450 2C8
  IC50: > 30 µM
[14]
  Retention_time: 7.64 min
[15]
  MRT last: 2.7 h
[16]
  Drug uptake: Active
[17]
  CLint scaled: < 13 mL/min/kg
[18]
  fraction unbound: 0.043
[19]
  Tmax: 0.4 h
[20]
  bioavailability: 22%
[21]
  fraction unbound: 0.029
Cytochrome P450 3A4
  IC50: > 30 µM

Source: ChEMBL document CHEMBL6134873, “Identification of Novel Cyclobutane-Based Derivatives as Potent Acetyl-CoA Carboxylase Allosteric Inhibitors for Nonalcoholic Steatohepatitis Drug Discovery” (J Med Chem, 2025)
